Source: patent US6306422A, “Compositions and devices for controlled release of active ingredients” (priority 1998, dated 2001)
Structures can show the parent of a compound that is named as a salt.

Tests used:
[1] = Swelling in solvents for drug loading and AHA loading of the hydrogel; format: physicochemical
Description: Six pieces of the MMA/AA (90/9) polymer were weighed in the dry state. Each piece was placed into 4 ml of a separate solvent. The solvents used were pH buffers with pH values of 4.0, 7.4, and 9.0, 90 v/v % ethanol, methanol, and 90 v/v % acetone at 37° C. […] A 16 w/w % solution of acetohydroxamic acid in 90% acetone was prepared.
Hydrogel pieces were weighed in the dry state. Six pieces weighing approximately the same were separated out for each respective pH buffer value. Each gel piece was individually placed into a test tube containing 3 ml of the 16% AHA acetone solution. The test tubes were capped and wrapped in parafilm to prevent evaporation of the solvent. The test tubes were placed into a 37° C. water bath for 48 hours. The hydrogel pieces were then removed from the AHA solution and placed in a vacuum oven at 60° C. for solvent evaporation and then at room temperature for a total drying time of 72 hours. The drug-loaded gels were then reweighed, and the total AHA content was calculated.
Absorbances for each of the solutions were measured at 515 nm on a Perkin-Elmer Lambda 3B UV/VIS Spectrophotometer. A calibration curve was calculated from the standard concentration solutions. The concentrations of the AHA were calculated from the absorbances and raised to the initial surface area of the gel matrix.

urease = target: T1, urease (Proteus mirabilis, UniProt P17086); assay: Bacteria/urease study: pH of artificial urine with Proteus mirabilis; format: cell-based; details: 10^11 bacteria/ml
T1 construct: endogenous in cells; host or cells: living Proteus mirabilis (clinic isolate) in artificial urine
T1 sequence (P17086 whole entry): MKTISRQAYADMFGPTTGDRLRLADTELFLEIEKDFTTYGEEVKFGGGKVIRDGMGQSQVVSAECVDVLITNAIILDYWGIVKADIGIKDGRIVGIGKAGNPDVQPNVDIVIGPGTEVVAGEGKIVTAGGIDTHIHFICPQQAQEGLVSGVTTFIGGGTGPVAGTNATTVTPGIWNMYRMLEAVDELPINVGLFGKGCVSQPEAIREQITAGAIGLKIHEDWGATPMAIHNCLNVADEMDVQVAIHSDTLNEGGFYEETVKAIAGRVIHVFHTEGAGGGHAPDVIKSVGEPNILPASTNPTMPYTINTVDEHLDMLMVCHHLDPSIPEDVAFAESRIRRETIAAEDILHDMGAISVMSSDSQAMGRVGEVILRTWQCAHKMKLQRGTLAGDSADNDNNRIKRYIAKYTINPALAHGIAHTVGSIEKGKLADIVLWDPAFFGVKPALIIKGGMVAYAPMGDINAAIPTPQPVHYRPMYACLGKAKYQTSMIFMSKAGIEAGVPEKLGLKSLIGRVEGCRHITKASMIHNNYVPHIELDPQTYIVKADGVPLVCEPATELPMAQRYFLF
T1 sequence (P17088 whole entry, further chain): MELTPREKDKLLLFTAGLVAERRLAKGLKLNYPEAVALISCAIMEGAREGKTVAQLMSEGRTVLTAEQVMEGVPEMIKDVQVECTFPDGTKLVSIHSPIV
T1 sequence (P17087 whole entry, further chain): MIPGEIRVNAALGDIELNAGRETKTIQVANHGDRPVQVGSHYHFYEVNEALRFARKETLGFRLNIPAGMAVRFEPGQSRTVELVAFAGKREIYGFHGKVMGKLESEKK
Description: After mixing, the urine was filter-sterilized into a sterile container using a 0.2 μm pore size filtration system. A solution of this artificial urine containing 750 μg/ml of AHA was prepared by dissolving 0.0757 g of the AHA in 100 ml of the urine. This solution was then diluted in series to yield artificial urine with AHA concentrations of 375, 187.5, 75, and 7.5 μg/ml.
Fifty milliliters of these solutions were sterilized by filtering them through a syringe filter with 0.2 μm pore size into a sterile container.
Proteus mirabilis were harvested from the Surgery/Urology clinic at the University of Florida, Gainesville, Fla. These bacteria were cultured on a heart infusion agar (Difco Laboratories) for 48 hours at 37° C. Bacteria were aseptically harvested and suspended in a solution of artificial urine not containing any of the urease inhibitor. Dilutions of this suspension were made to 10,000, and a count of the bacteria was made on a microscopic counting grid. The initial concentration of bacteria was back-calculated by using the Petroff-Hauser formula shown in equation two. [formula]
For the urine solutions containing the urease inhibitor and two control solutions (one containing bacteria and the other without), a series of six test tubes was set up. […] The pH of each of the samples was measured initially and then at 2 hour intervals up to 12 hours. […]

[2] = cited from earlier work
bacteria = details: cited from earlier work
[3] = cited from earlier work; remark: listed apart in the source
[4] = cited from earlier work; remark: listed apart in the source
struvite encrustation = details: cited from earlier work
[5] = in vivo; cited from earlier work
[6] = tested on: Proteus sp. and other urease-producing organisms; details: cited from earlier work

CC(=O)NO [AHA, acetohydroxamic acid]
concentration near the saturation point ([1]; in 90% acetone): ~16 w/w % | solubility of AHA in the chosen solutions ([1]; pH 4.0, 7.4, 9.0 buffers, 90 v/v % ethanol, methanol, 90 v/v % acetone): very soluble | effect of AHA on the activity of urease (pH of artificial urine) (urease; AHA 7.5-750 μg/ml, 37° C., up to 24 hours): resists pH increase for a longer time and experiences a smaller overall pH increase | concentration of AHA giving therapeutic benefit (urease; artificial urine): 7.5 µg/mL | absorption from the gastrointestinal tract ([2]; human, in vivo): well absorbed | adverse effects limiting use ([2]; patients): Coomb's hemolytic anemia, GI complaints, bone marrow depression, and teratogenicity | effect of the presence of AHA on methenamine (bacteria): increases the antibacterial activity of the methenamine | pKa [3]: 9.3

O=C(O)CNC(=O)c1ccccc1 [hippuric acid]
solubility in alcohols [4]: highly soluble

heparin sulfate
prevention of struvite encrustation (struvite encrustation): ineffective

O=C(O)CC(O)(CC(=O)O)C(=O)O [Sodium citrate]
prevention of struvite encrustation (struvite encrustation): shows potential

Chondroitin sulfate
prevention of struvite encrustation (struvite encrustation): ineffective

Gentamicin
toxicity limiting plasma concentrations [5]: systemic nephrotoxicity | effectiveness against Proteus sp. and other urease-producing organisms [6]: highly effective

[H]/N=C(\N/C(=N/[H])NCCCCCCNC(=N)NC(=N)Nc1ccc(Cl)cc1)Nc1ccc(Cl)cc1 [chlorhexidine]
solubility in alcohols [4]: highly soluble
